From ChEMBL document CHEMBL4145521, “Regioselective synthesis of 3,4-diaryl-5-unsubstituted isoxazoles, analogues of natural cytostatic combretastatin A4” (Eur J Med Chem, 2018)

How the values were obtained:
Format in all cases: functional
[1] = test system: EKVX; experiment: Cytotoxicity against human EKVX cells assessed as cell growth at 0.01 uM incubated for 48 hrs by sulforhodamine B assay relative to control; conditions: read-out: Activity
[2] = test system: KM12; experiment: Cytotoxicity against human KM12 cells assessed as cell growth at 0.01 uM incubated for 48 hrs by sulforhodamine B assay relative to control; conditions: KM12, 48 h, read-out: Activity
[3] = test system: SF-295; experiment: Cytotoxicity against human SF295 cells assessed as cell growth at 0.01 uM incubated for 48 hrs by sulforhodamine B assay relative to control; conditions: SF-295, 48 h, read-out: Activity
[4] = test system: SNB-75; experiment: Cytotoxicity against human SNB75 cells assessed as cell growth at 0.01 uM incubated for 48 hrs by sulforhodamine B assay relative to control; conditions: SNB-75, 48 h, read-out: Activity
[5] = test system: SN12C; experiment: Cytotoxicity against human SN12C cells assessed as cell growth at 0.01 uM incubated for 48 hrs by sulforhodamine B assay relative to control; conditions: read-out: Activity
[6] = test system: BT-549; experiment: Cytotoxicity against human BT549 cells assessed as cell growth at 0.01 uM incubated for 48 hrs by sulforhodamine B assay relative to control; conditions: BT-549, 48 h, read-out: Activity
[7] = test system: A549; experiment: Cytotoxicity against human A549/ATCC cells assessed as cell growth at 0.1 uM incubated for 48 hrs by sulforhodamine B assay relative to control; conditions: A549, 48 h, read-out: Activity
[8] = test system: Malme-3M; experiment: Cytotoxicity against human MALME-3M cells assessed as cell growth at 0.1 uM incubated for 48 hrs by sulforhodamine B assay relative to control; conditions: read-out: Activity
[9] = test system: MDA-MB-435; experiment: Cytotoxicity against human MDA-MB-435 cells assessed as cell growth at 0.1 uM incubated for 48 hrs by sulforhodamine B assay relative to control; conditions: MDA-MB-435, 48 h, read-out: Activity
[10] = test system: ACHN; experiment: Cytotoxicity against human ACHN cells assessed as cell growth at 0.1 uM incubated for 48 hrs by sulforhodamine B assay relative to control; conditions: read-out: Activity
[11] = test system: UO-31; experiment: Cytotoxicity against human UO31 cells assessed as cell growth at 0.1 uM incubated for 48 hrs by sulforhodamine B assay relative to control; conditions: UO-31, 48 h, read-out: Activity
[12] = test system: PC-3; experiment: Cytotoxicity against human PC3 cells assessed as cell growth at 0.1 uM incubated for 48 hrs by sulforhodamine B assay relative to control; conditions: PC-3, 48 h, read-out: Activity
[13] = test system: MDA-MB-231; experiment: Cytotoxicity against human MDA-MB-231 cells assessed as cell growth at 0.1 uM incubated for 48 hrs by sulforhodamine B assay relative to control; conditions: MDA-MB-231, 48 h, read-out: Activity
[14] = test system: HCC 2998; experiment: Cytotoxicity against human HCC2998 cells assessed as cell growth at 1 uM incubated for 48 hrs by sulforhodamine B assay relative to control; conditions: HCC 2998, 48 h, read-out: Activity
[15] = test system: HCT-116; experiment: Cytotoxicity against human HCT116 cells assessed as cell growth at 1 uM incubated for 48 hrs by sulforhodamine B assay relative to control; conditions: HCT-116, 48 h, read-out: Activity
[16] = test system: HCT-15; experiment: Cytotoxicity against human HCT15 cells assessed as cell growth at 1 uM incubated for 48 hrs by sulforhodamine B assay relative to control; conditions: HCT-15, 48 h, read-out: Activity
[17] = test system: SK-MEL-5; experiment: Cytotoxicity against human SK-MEL-5 cells assessed as cell growth at 1 uM incubated for 48 hrs by sulforhodamine B assay relative to control; conditions: SK-MEL-5, 48 h, read-out: Activity
[18] = test system: OVCAR-8; experiment: Cytotoxicity against human OVCAR8 cells assessed as cell growth at 1 uM incubated for 48 hrs by sulforhodamine B assay relative to control; conditions: OVCAR-8, 48 h, read-out: Activity
[19] = test system: NCI/ADR-RES; experiment: Cytotoxicity against human NCI/ADR-RES cells assessed as cell growth at 1 uM incubated for 48 hrs by sulforhodamine B assay relative to control; conditions: read-out: Activity
[20] = test system: EKVX; experiment: Cytotoxicity against human EKVX cells assessed as cell growth at 10 uM incubated for 48 hrs by sulforhodamine B assay relative to control; conditions: read-out: Activity
[21] = test system: HOP-92; experiment: Cytotoxicity against human HOP92 cells assessed as cell growth at 10 uM incubated for 48 hrs by sulforhodamine B assay relative to control; conditions: HOP-92, 48 h, read-out: Activity
[22] = test system: NCI-H23; experiment: Cytotoxicity against human NCI-H23 cells assessed as cell growth at 10 uM incubated for 48 hrs by sulforhodamine B assay relative to control; conditions: NCI-H23, 48 h, read-out: Activity
[23] = test system: SNB-19; experiment: Cytotoxicity against human SNB19 cells assessed as cell growth at 10 uM incubated for 48 hrs by sulforhodamine B assay relative to control; conditions: SNB-19, 48 h, read-out: Activity
[24] = test system: OVCAR-8; experiment: Cytotoxicity against human OVCAR8 cells assessed as cell growth at 10 uM incubated for 48 hrs by sulforhodamine B assay relative to control; conditions: OVCAR-8, 48 h, read-out: Activity
[25] = test system: NCI-H23; experiment: Cytotoxicity against human NCI-H23 cells assessed as cell growth at 100 uM incubated for 48 hrs by sulforhodamine B assay relative to control; conditions: NCI-H23, 48 h, read-out: Activity
[26] = test system: NCI-H322M; experiment: Cytotoxicity against human NCI-H322M cells assessed as cell growth at 100 uM incubated for 48 hrs by sulforhodamine B assay relative to control; conditions: read-out: Activity
[27] = test system: HCC 2998; experiment: Cytotoxicity against human HCC2998 cells assessed as cell growth at 100 uM incubated for 48 hrs by sulforhodamine B assay relative to control; conditions: HCC 2998, 48 h, read-out: Activity
[28] = test system: SK-OV-3; experiment: Cytotoxicity against human SKOV3 cells assessed as cell growth at 100 uM incubated for 48 hrs by sulforhodamine B assay relative to control; conditions: SK-OV-3, 48 h, read-out: Activity
[29] = test system: NCI-H23; experiment: Cytotoxicity against human NCI-H23 cells incubated for 48 hrs by sulforhodamine B assay; conditions: NCI-H23, 48 h
[30] = test system: COLO 205; experiment: Cytotoxicity against human COLO205 cells incubated for 48 hrs by sulforhodamine B assay; conditions: COLO 205, 48 h
[31] = test system: 786-0; experiment: Cytotoxicity against human 786-0 cells incubated for 48 hrs by sulforhodamine B assay; conditions: 786-0, 48 h
[32] = test system: MDA-MB-468; experiment: Cytotoxicity against human MDA-MB-468 cells incubated for 48 hrs by sulforhodamine B assay; conditions: MDA-MB-468, 48 h
[33] = read-out: LC50 (the source's name)
[34] = read-out: pLC50 (the source's name) (converted)

COc1ccc(-c2nocc2-c2cc(OC)c(OC)c(OC)c2)cc1
growth at 0.01 µM [1]: 83%
growth at 0.01 µM [2]: 92%
growth at 0.01 µM [3]: 84%
growth at 0.01 µM [4]: 74%
growth at 0.01 µM [5]: 107%
growth at 0.01 µM [6]: 86%
growth at 0.1 µM [7]: 47%
growth at 0.1 µM [8]: 55%
growth at 0.1 µM [9]: 3%
growth at 0.1 µM [10]: 62%
growth at 0.1 µM [11]: 70%
growth at 0.1 µM [12]: 40%
growth at 0.1 µM [13]: 72%
growth at 1 µM [14]: 40%
growth at 1 µM [15]: 14%
growth at 1 µM [16]: 23%
growth at 1 µM [17]: 29%
growth at 1 µM [18]: 27%
growth at 1 µM [19]: 9%
growth at 10 µM [20]: 32%
growth at 10 µM [21]: 49%
growth at 10 µM [22]: 19%
growth at 10 µM [23]: 29%
growth at 10 µM [24]: 25%
growth at 100 µM [25]: -3%
growth at 100 µM [26]: 18%
growth at 100 µM [27]: -47%
growth at 100 µM [28]: 5%
GI50 ([29]; read-out: GI50): 0.283 µM
CC50 [29, 33]: > 100 µM
TGI ([29]; read-out: TGI): 74.9 µM
GI50 ([29]; read-out: pGI50 (converted)): 0.282 µM
CC50 [29, 34]: > 100 µM
TGI ([29]; read-out: pTGI (converted)): 74.1 µM
GI50 ([30]; read-out: GI50): 0.0581 µM
CC50 [30, 33]: > 100 µM
TGI ([30]; read-out: TGI): 1.91 µM
GI50 ([30]; read-out: pGI50 (converted)): 0.0575 µM
CC50 [30, 34]: > 100 µM
TGI ([30]; read-out: pTGI (converted)): 1.91 µM
GI50 ([31]; read-out: GI50): 0.174 µM
LC50 ([31]; read-out: LC50): > 100 µM
TGI ([31]; read-out: TGI): 38.6 µM
GI50 ([31]; read-out: pGI50 (converted)): 0.174 µM
LC50 ([31]; read-out: pLC50 (converted)): > 100 µM
TGI ([31]; read-out: pTGI (converted)): 38.9 µM
GI50 ([32]; read-out: GI50): 0.123 µM
LC50 ([32]; read-out: LC50): > 100 µM
TGI ([32]; read-out: TGI): 13.8 µM
GI50 ([32]; read-out: pGI50 (converted)): 0.123 µM
LC50 ([32]; read-out: pLC50 (converted)): > 100 µM
TGI ([32]; read-out: pTGI (converted)): 13.8 µM
